Laboratory results taken from ChEMBL document CHEMBL1201861, “Genomics of Drug Sensitity in Cancer screening data, Wellcome Trust Sanger Institute”.

Columns and labels:
Assay in all cases: cells
COLO-800 = format: functional, cell-based, Homo sapiens; settings: Homo sapiens, COLO-800
Description: SANGER: Inhibition of human COLO-800 cell growth in a cell viability assay.

D-263MG = format: functional, cell-based, Homo sapiens; settings: Homo sapiens, D-263MG
Description: SANGER: Inhibition of human D-263MG cell growth in a cell viability assay.

DMS-114 = format: functional, cell-based, Homo sapiens; settings: Homo sapiens, DMS-114
ES1 = format: functional, cell-based, Homo sapiens; settings: Homo sapiens, ES1
Description: SANGER: Inhibition of human ES1 cell growth in a cell viability assay.

ES6 = format: functional, cell-based; settings: Homo sapiens
Description: SANGER: Inhibition of human ES6 cell growth in a cell viability assay.

ES8 = format: functional, cell-based, Homo sapiens; settings: Homo sapiens, ES8
Description: SANGER: Inhibition of human ES8 cell growth in a cell viability assay.

ETK-1 = format: functional, cell-based, Homo sapiens; settings: Homo sapiens, ETK-1
Description: SANGER: Inhibition of human ETK-1 cell growth in a cell viability assay.

GB-1 = format: functional, cell-based, Homo sapiens; settings: Homo sapiens, GB-1
Description: SANGER: Inhibition of human GB-1 cell growth in a cell viability assay.

GI-1 = format: functional, cell-based, Homo sapiens; settings: Homo sapiens, GI-1
Description: SANGER: Inhibition of human GI-1 cell growth in a cell viability assay.

GOTO = format: functional, cell-based, Homo sapiens; settings: Homo sapiens, GOTO
Description: SANGER: Inhibition of human GOTO cell growth in a cell viability assay.

HCC2157 = format: functional, cell-based, Homo sapiens; settings: Homo sapiens, HCC2157
Description: SANGER: Inhibition of human HCC2157 cell growth in a cell viability assay.

HCE-4 = format: functional, cell-based; settings: Homo sapiens
Description: SANGER: Inhibition of human HCE-4 cell growth in a cell viability assay.

HH = format: functional, cell-based, Homo sapiens; settings: Homo sapiens, HH
Description: SANGER: Inhibition of human HH cell growth in a cell viability assay.

HOP-62 = format: functional, cell-based, Homo sapiens; settings: Homo sapiens, HOP-62
Description: SANGER: Inhibition of human HOP-62 cell growth in a cell viability assay.

IA-LM = format: functional, cell-based; settings: Homo sapiens
Description: SANGER: Inhibition of human IA-LM cell growth in a cell viability assay.

KARPAS-299 = format: functional, cell-based, Homo sapiens; settings: Homo sapiens, KARPAS-299
Description: SANGER: Inhibition of human KARPAS-299 cell growth in a cell viability assay.

KARPAS-45 = format: functional, cell-based, Homo sapiens; settings: Homo sapiens, KARPAS-45
Description: SANGER: Inhibition of human KARPAS-45 cell growth in a cell viability assay.

KNS-42 = format: functional, cell-based; settings: Homo sapiens
Description: SANGER: Inhibition of human KNS-42 cell growth in a cell viability assay.

KS-1 = format: functional, cell-based; settings: Homo sapiens
Description: SANGER: Inhibition of human KS-1 cell growth in a cell viability assay.

LB2518-MEL = format: functional, cell-based; settings: Homo sapiens
Description: SANGER: Inhibition of human LB2518-MEL cell growth in a cell viability assay.

LNCaP-Clone-FGC = format: functional, cell-based, Homo sapiens; settings: Homo sapiens, LNCaP-Clone-FGC
Description: SANGER: Inhibition of human LNCaP-Clone-FGC cell growth in a cell viability assay.

LOX IMVI = format: functional, cell-based, Homo sapiens; settings: Homo sapiens, LOX IMVI
Description: SANGER: Inhibition of human LOXIMVI cell growth in a cell viability assay.

LS-123 = format: functional, cell-based, Homo sapiens; settings: Homo sapiens, LS-123
Description: SANGER: Inhibition of human LS-123 cell growth in a cell viability assay.

LU-134-A = format: functional, cell-based, Homo sapiens; settings: Homo sapiens, LU-134-A
Description: SANGER: Inhibition of human LU-134-A cell growth in a cell viability assay.

MFM-223 = format: functional, cell-based, Homo sapiens; settings: Homo sapiens, MFM-223
Description: SANGER: Inhibition of human MFM-223 cell growth in a cell viability assay.

MLMA = format: functional, cell-based, Homo sapiens; settings: Homo sapiens, MLMA
Description: SANGER: Inhibition of human MLMA cell growth in a cell viability assay.

MZ1-PC = format: functional, cell-based, Homo sapiens; settings: Homo sapiens, MZ1-PC
Description: SANGER: Inhibition of human MZ1-PC cell growth in a cell viability assay.

MZ7-mel = format: functional, cell-based, Homo sapiens; settings: Homo sapiens, MZ7-mel
Description: SANGER: Inhibition of human MZ7-mel cell growth in a cell viability assay.

Mo = format: functional, cell-based, Homo sapiens; settings: Homo sapiens, Mo
Description: SANGER: Inhibition of human Mo-T cell growth in a cell viability assay.

NCI-H1355 = format: functional, cell-based, Homo sapiens; settings: Homo sapiens, NCI-H1355
Description: SANGER: Inhibition of human NCI-H1355 cell growth in a cell viability assay.

NCI-H209 = format: functional, cell-based, Homo sapiens; settings: Homo sapiens, NCI-H209
Description: SANGER: Inhibition of human NCI-H209 cell growth in a cell viability assay.

NTERA-2-cl-D1 = format: functional, cell-based, Homo sapiens; settings: Homo sapiens, NTERA-2-cl-D1
Description: SANGER: Inhibition of human NTERA-S-cl-D1 cell growth in a cell viability assay.

RPMI-8866 = format: functional, cell-based, Homo sapiens; settings: Homo sapiens, RPMI-8866
Description: SANGER: Inhibition of human RPMI-8866 cell growth in a cell viability assay.

Ramos-2G6-4C10 = format: functional, cell-based, Homo sapiens; settings: Homo sapiens, Ramos-2G6-4C10
Description: SANGER: Inhibition of human Ramos-2G6-4C10 cell growth in a cell viability assay.

SCC-15 = format: functional, cell-based, Homo sapiens; settings: Homo sapiens, SCC-15
Description: SANGER: Inhibition of human SCC-15 cell growth in a cell viability assay.

SF-126 = format: functional, cell-based, Homo sapiens; settings: Homo sapiens, SF-126
Description: SANGER: Inhibition of human SF126 cell growth in a cell viability assay.

SF-268 = format: functional, cell-based, Homo sapiens; settings: Homo sapiens, SF-268
Description: SANGER: Inhibition of human SF268 cell growth in a cell viability assay.

SF-539 = format: functional, cell-based, Homo sapiens; settings: Homo sapiens, SF-539
Description: SANGER: Inhibition of human SF539 cell growth in a cell viability assay.

SH-4 = format: functional, cell-based; settings: Homo sapiens
Description: SANGER: Inhibition of human SH-4 cell growth in a cell viability assay.

SK-MEL-1 = format: functional, cell-based, Homo sapiens; settings: Homo sapiens, SK-MEL-1
Description: SANGER: Inhibition of human SK-MEL-1 cell growth in a cell viability assay.

SNB-75 = format: functional, cell-based, Homo sapiens; settings: Homo sapiens, SNB-75
Description: SANGER: Inhibition of human SNB75 cell growth in a cell viability assay.

8-MG-BA = format: functional, cell-based, Homo sapiens; settings: Homo sapiens, 8-MG-BA
Description: SANGER: Inhibition of human 8-MG-BA cell growth in a cell viability assay.

A101D = format: functional, cell-based, Homo sapiens; settings: Homo sapiens, A101D
Description: SANGER: Inhibition of human A101D cell growth in a cell viability assay.

A498 = format: functional, cell-based, Homo sapiens; settings: Homo sapiens, A498
Description: SANGER: Inhibition of human A498 cell growth in a cell viability assay.

BB65-RCC = format: functional, cell-based, Homo sapiens; settings: Homo sapiens, BB65-RCC
Description: SANGER: Inhibition of human BB65-RCC cell growth in a cell viability assay.

C2BBe1 = format: functional, cell-based, Homo sapiens; settings: Homo sapiens, C2BBe1
Description: SANGER: Inhibition of human C2BBe1 cell growth in a cell viability assay.

TE-12 = format: functional, cell-based, Homo sapiens; settings: Homo sapiens, TE-12
Description: SANGER: Inhibition of human TE-12 cell growth in a cell viability assay.

TGBC24TKB = format: functional, cell-based; settings: Homo sapiens
Description: SANGER: Inhibition of human TGBC24TKB cell growth in a cell viability assay.

TGW = format: functional, cell-based, Homo sapiens; settings: Homo sapiens, TGW
Description: SANGER: Inhibition of human TGW cell growth in a cell viability assay.

VA-ES-BJ = format: functional, cell-based, Homo sapiens; settings: Homo sapiens, VA-ES-BJ
Description: SANGER: Inhibition of human VA-ES-BJ cell growth in a cell viability assay.

CGTH-W-1 = format: functional, cell-based, Homo sapiens; settings: Homo sapiens, CGTH-W-1
Description: SANGER: Inhibition of human CGTH-W-1 cell growth in a cell viability assay.

## Cc1cc(N2CCOCC2)cc2[nH]c(-c3c(NC[C@@H](O)c4cccc(Cl)c4)cc[nH]c3=O)nc12
COLO-800
  IC50: > 5.12 µM
D-263MG
  IC50: > 5.12 µM
DMS-114
  IC50: > 5.12 µM
ES1
  IC50: 1.62 µM
ES6
  IC50: 0.425 µM
ES8
  IC50: 2.3 µM
ETK-1
  IC50: 0.0961 µM
GB-1
  IC50: 0.495 µM
GI-1
  IC50: 0.913 µM
GOTO
  IC50: > 5.12 µM
HCC2157
  IC50: > 5.12 µM
HCE-4
  IC50: > 5.12 µM
HH
  IC50: > 5.12 µM
HOP-62
  IC50: 0.936 µM
IA-LM
  IC50: > 5.12 µM
KARPAS-299
  IC50: 3.85 µM
KARPAS-45
  IC50: 4.01 µM
KNS-42
  IC50: > 5.12 µM
KS-1
  IC50: 0.102 µM
LB2518-MEL
  IC50: > 5.12 µM
LNCaP-Clone-FGC
  IC50: > 5.12 µM
LOX IMVI
  IC50: > 5.12 µM
LS-123
  IC50: > 5.12 µM
LU-134-A
  IC50: 1.6 µM
MFM-223
  IC50: > 5.12 µM
MLMA
  IC50: 2.01 µM
MZ1-PC
  IC50: 0.764 µM
MZ7-mel
  IC50: > 5.12 µM
Mo
  IC50: > 5.12 µM
NCI-H1355
  IC50: 0.553 µM
NCI-H209
  IC50: > 5.12 µM
NTERA-2-cl-D1
  IC50: 0.257 µM
RPMI-8866
  IC50: > 5.12 µM
Ramos-2G6-4C10
  IC50: > 5.12 µM
SCC-15
  IC50: > 5.12 µM
SF-126
  IC50: 2.47 µM
SF-268
  IC50: 3.04 µM
SF-539
  IC50: > 5.12 µM
SH-4
  IC50: 0.882 µM
SK-MEL-1
  IC50: > 5.12 µM
SNB-75
  IC50: 3.43 µM
8-MG-BA
  IC50: 3.93 µM
A101D
  IC50: 1.89 µM
A498
  IC50: > 5.12 µM
BB65-RCC
  IC50: > 5.12 µM
C2BBe1
  IC50: > 5.12 µM
TE-12
  IC50: 0.176 µM
TGBC24TKB
  IC50: 0.275 µM
TGW
  IC50: 0.683 µM
VA-ES-BJ
  IC50: > 5.12 µM
CGTH-W-1
  IC50: > 5.12 µM

## C=CC(=O)N1CCCC(Nc2nc(Nc3ccc(N(C)C(=O)CC)cc3)nc3[nH]cnc23)C1 (configuration not stated)
COLO-800
  IC50: > 10.2 µM
D-263MG
  IC50: > 10.2 µM
DMS-114
  IC50: > 10.2 µM
ES1
  IC50: > 10.2 µM
ES6
  IC50: > 10.2 µM
ES8
  IC50: > 10.2 µM
ETK-1
  IC50: > 10.2 µM
GB-1
  IC50: > 10.2 µM
GI-1
  IC50: > 10.2 µM
GOTO
  IC50: > 10.2 µM
HCC2157
  IC50: > 10.2 µM
HCE-4
  IC50: > 10.2 µM
HH
  IC50: > 10.2 µM
HOP-62
  IC50: > 10.2 µM
IA-LM
  IC50: > 10.2 µM
KARPAS-299
  IC50: > 10.2 µM
KARPAS-45
  IC50: > 10.2 µM
KNS-42
  IC50: > 10.2 µM
KS-1
  IC50: 8.01 µM
LB2518-MEL
  IC50: > 10.2 µM
LNCaP-Clone-FGC
  IC50: > 10.2 µM
LOX IMVI
  IC50: > 10.2 µM
LS-123
  IC50: > 10.2 µM
LU-134-A
  IC50: > 10.2 µM
MFM-223
  IC50: > 10.2 µM
MLMA
  IC50: > 10.2 µM
MZ1-PC
  IC50: 7.94 µM
MZ7-mel
  IC50: > 10.2 µM
Mo
  IC50: > 10.2 µM
NCI-H1355
  IC50: > 10.2 µM
NCI-H209
  IC50: > 10.2 µM
NTERA-2-cl-D1
  IC50: > 10.2 µM
RPMI-8866
  IC50: > 10.2 µM
Ramos-2G6-4C10
  IC50: > 10.2 µM
SCC-15
  IC50: > 10.2 µM
SF-126
  IC50: > 10.2 µM
SF-268
  IC50: > 10.2 µM
SF-539
  IC50: > 10.2 µM
SH-4
  IC50: > 10.2 µM
SK-MEL-1
  IC50: > 10.2 µM
SNB-75
  IC50: > 10.2 µM
8-MG-BA
  IC50: > 10.2 µM
A101D
  IC50: > 10.2 µM
A498
  IC50: > 10.2 µM
BB65-RCC
  IC50: > 10.2 µM
C2BBe1
  IC50: > 10.2 µM
TE-12
  IC50: 2.35 µM
TGBC24TKB
  IC50: > 10.2 µM
TGW
  IC50: > 10.2 µM
VA-ES-BJ
  IC50: > 10.2 µM
CGTH-W-1
  IC50: > 10.2 µM
